The values below come from ChEMBL document CHEMBL1201862, “PubChem BioAssay data set” (2004).

Structures are written as SMILES. Calls of active or inactive are those of the source.

Series [1] deals with T1, Cytochrome P450 3A4 (Homo sapiens, UniProt P08684). Particulars: Potency.
For another series, the target named is Cytochrome P450 2C19 (Homo sapiens, UniProt P33261). The series can be described thus: Cytochrome panel assay with activity outcomes. Panel member name: p450-cyp2c19 Compounds with AC50 equal or less than 10 uM are considered active. Particulars: read-out: AC50. In kind it is functional.
Chain of Cytochrome P450 2C19 (P33261 whole entry): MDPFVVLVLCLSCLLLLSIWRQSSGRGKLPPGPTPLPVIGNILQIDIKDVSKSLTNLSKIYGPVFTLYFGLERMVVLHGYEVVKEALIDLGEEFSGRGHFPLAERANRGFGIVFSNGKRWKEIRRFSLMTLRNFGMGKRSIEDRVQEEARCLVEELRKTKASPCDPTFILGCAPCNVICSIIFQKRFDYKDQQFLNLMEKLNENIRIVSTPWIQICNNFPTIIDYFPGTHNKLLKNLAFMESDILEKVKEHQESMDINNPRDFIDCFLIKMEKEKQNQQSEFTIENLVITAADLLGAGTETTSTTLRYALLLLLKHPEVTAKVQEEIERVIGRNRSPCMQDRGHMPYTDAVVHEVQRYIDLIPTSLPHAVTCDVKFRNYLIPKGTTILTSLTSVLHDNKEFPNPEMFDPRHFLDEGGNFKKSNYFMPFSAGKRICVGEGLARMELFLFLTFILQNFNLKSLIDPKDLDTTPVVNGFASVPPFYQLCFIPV
The target in series [2] is T1, Cytochrome P450 3A4.
The next series deals with Cytochrome P450 2C9 (Homo sapiens, UniProt P11712).
Chain of Cytochrome P450 2C9 (P11712 whole entry): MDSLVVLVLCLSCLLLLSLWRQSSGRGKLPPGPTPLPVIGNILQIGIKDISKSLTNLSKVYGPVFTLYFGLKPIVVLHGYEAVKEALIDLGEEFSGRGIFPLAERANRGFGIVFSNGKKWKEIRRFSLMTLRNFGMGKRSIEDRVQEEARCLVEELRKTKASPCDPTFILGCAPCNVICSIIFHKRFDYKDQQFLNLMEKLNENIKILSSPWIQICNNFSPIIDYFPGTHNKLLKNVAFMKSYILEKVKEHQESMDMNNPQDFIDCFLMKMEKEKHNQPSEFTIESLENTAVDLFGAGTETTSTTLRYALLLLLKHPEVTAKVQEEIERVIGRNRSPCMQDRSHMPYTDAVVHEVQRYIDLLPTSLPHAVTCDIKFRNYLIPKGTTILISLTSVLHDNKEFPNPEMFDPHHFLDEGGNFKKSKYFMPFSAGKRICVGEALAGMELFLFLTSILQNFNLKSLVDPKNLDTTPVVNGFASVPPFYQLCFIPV
Series [3] in a line: Luminescence Cell-Based Dose Confirmation HTS to Identify Activators of 5'UTR Stem-Loop Driven Alpha-Synuclein mRNA Translation in H4 Neuroglioblastoma Cells. [Related pubchem assays: 1829 (Project Summary), 1814 (Primary HTS)]. It counts as functional.
Series [4] in a line: Luminescence Cell-Based Dose Response HTS to Identify Activators of Luciferase Translation or Activity in H4 […] Cells. [Related pubchem assays: 1829 (Project Summary), 1814 (Primary HTS)]. It counts as functional.
The test system of another series is H4. The series can be described thus: Luminescence Cell-Based Dose Response HTS to Identify Activators of 5'UTR Stem-Loop Driven Prion Protein mRNA Translation in H4 Neuroglioblastoma Cells. [Related pubchem assays: 1829 (Project Summary), 1814 (Primary HTS)]. Particulars: Homo sapiens. In kind it is functional.
Series [5] in a line: HEK-293T viability loss after treatment – luminescence, T-cell screen hits, cytotoxicity control for TCR NF-kB inhibitor project, dose response (AID 489026).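 Further: cells exposed to compound about 14 hours before the viability readout.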 It counts as functional, cell-based.
In series [6] the target is T2, Microphthalmia-associated transcription factor (Homo sapiens, UniProt O75030).
T2 sequence (O75030 whole entry): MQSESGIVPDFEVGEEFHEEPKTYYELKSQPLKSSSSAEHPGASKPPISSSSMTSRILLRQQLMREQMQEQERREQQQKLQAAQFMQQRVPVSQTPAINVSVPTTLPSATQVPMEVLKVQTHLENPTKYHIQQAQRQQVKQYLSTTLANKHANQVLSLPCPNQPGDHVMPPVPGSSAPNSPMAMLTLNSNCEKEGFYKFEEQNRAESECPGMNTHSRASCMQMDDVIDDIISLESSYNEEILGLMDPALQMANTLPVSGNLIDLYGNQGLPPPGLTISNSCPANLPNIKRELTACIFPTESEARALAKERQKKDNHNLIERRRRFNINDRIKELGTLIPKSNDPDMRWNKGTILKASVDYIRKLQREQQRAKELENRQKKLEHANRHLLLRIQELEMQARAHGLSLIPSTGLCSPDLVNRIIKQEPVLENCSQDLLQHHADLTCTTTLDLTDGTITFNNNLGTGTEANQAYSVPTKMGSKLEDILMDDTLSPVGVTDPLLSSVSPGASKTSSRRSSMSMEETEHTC
The series can be described thus: reducers of TRPM1 reporter luminescence, concentration series – cell-based, SK-MEL-5, cherry-picked, set 3, MITF inhibitor project, dose response (AID 493073).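 Further: SK-MEL-5 melanoma cells with luciferase driven by the MITF target TRPM1 promoter.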 In kind it is functional.

Series [7] is described as follows: cells. In kind it is functional, cell-based.
A short description of series [8]: cells. It counts as functional, cell-based. The source holds these as a separate data set.
The nature of series [9]: intracellular Trypanosoma cruzi inhibitors in host cells – cell-based, plate reader, cherry-pick samples, set 3, dose response (AID 651818).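 Further: compounds incubated with infected cells for about four days.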 It counts as functional.
Series [10] in a line: NIH-3T3 fibroblast cytotoxicity, dose response, cytotoxicity control, cell-based, fluorescence, Alamar Blue, secondary assay (AID 2327).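 Further: NIH-3T3 mouse fibroblasts cultured with fluconazole at 8 µg/mL.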 It counts as functional. (In general: The colour change of resazurin is a common sign of viable cells or microbes.)
A short description of series [11]: fluconazole-exposed Candida albicans growth modulators – fluorescence, retest, confirmation (AID 2467). It counts as functional, cell-based.

T1 sequence (P08684 whole entry): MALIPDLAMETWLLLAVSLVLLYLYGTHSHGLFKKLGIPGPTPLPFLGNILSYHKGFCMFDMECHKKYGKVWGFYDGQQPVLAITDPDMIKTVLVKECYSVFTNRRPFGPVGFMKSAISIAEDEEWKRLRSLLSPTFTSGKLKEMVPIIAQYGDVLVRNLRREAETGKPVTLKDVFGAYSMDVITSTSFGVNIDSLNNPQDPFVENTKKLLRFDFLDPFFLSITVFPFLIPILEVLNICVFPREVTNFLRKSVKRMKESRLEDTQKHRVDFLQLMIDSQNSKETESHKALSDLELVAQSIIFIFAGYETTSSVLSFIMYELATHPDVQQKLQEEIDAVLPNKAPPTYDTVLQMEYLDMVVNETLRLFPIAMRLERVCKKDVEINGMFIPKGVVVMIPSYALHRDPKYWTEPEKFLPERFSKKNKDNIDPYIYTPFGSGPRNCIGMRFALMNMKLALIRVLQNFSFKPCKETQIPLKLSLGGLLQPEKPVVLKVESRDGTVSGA

Broadly, the AC50 is the concentration at which the activity in the assay is half-maximal. As to `COC1C=CO[C@@]2(C)Oc3c(C)c(O)c4c(O)c(c5c(nc6cc(C)ccn65)c4c3C2=O)NC(=O)/C(C)=C\C=CC(C)C(O)[C@@H](C)C(O)C(C)[C@@H](OC(C)=O)C1C` (some centres undefined), the AC50 on Cytochrome P450 3A4 [1] was 7.94 µM (inconclusive). As to `Cc1c(Cl)cccc1NC(=O)C[C@H]1Sc2ccccc2NC1=O`, the AC50 on Cytochrome P450 2C19 was 3.16 µM (inconclusive); on Cytochrome P450 3A4 [2], 3.98 µM (inconclusive); on Cytochrome P450 2C9 it was “inconclusive”. As for `CCN(CC)CCCC(C)n1c(-c2ccccc2)nc2c(N3CCOCC3)nc(C)nc21` (centres undefined), the half-maximal activity concentration (AC50) at Cytochrome P450 3A4 [1] was 15.8 µM (inconclusive). Broadly, the EC50 is the concentration giving half of the maximal effect. Regarding `COC(=O)c1c(C)[nH]c(C(=O)OCc2ccc(F)cc2)c1C`, the EC50 was 0.115 µM (active) in series [3], 23.8 µM (active) in [4] and 9.55 µM (active) in the series on H4. In the case of `Cc1ccc(C(=O)c2cn(-c3ccc(F)c(Cl)c3)nn2)cc1`, at Cytochrome P450 2C9, the concentration at half-maximal activity (AC50) result is given as “inconclusive”. For `CCN1C(=O)C(O)(C2COC(C)(C)CC2=O)c2ccccc21` (centres undefined), the AC50 at Cytochrome P450 2C19 was 25.1 µM (inconclusive); on Cytochrome P450 2C9 it was “inconclusive”. In the case of `COc1cccc(C(=O)Nc2ccc(N3CCN(C(=O)c4ccco4)CC3)cc2)c1`, the EC50 in series [3] was > 120 µM (not active); in series [4], 8.46 µM (active); in the series with H4 it was > 120 µM (not active). What is called IC50 is the concentration at which inhibition is half-maximal. As for `Cc1cc(NC(=O)COC(=O)c2ccc(S(=O)(=O)N3CCCc4ccccc43)cc2)no1`, in series [5], the IC50 is > 80 µM (inactive). Turning to `COc1ccc(NS(=O)(=O)c2cc(NC(=O)CNC(=O)c3cccc(OC)c3)ccc2C)cc1`, the concentration at half-maximal activity (AC50) in [6] was 11 µM (active). As to `Cc1nc(Sc2nnnn2C)c2c3c(sc2n1)CCC3`, in [5], the IC50 was > 80 µM (inactive). Further, the AC50 in series [6] was 4.98 µM (active). For `COC(=O)c1cccc(C23CC4(C2)[C@H](CN(Cc2ccc(C(F)(F)F)cc2)[C@@H]4c2ccccc2)C3c2ccc(Cl)nc2)c1` (some centres undefined), the AC50 at Cytochrome P450 3A4 [1] is 3.98 µM (inconclusive). The same measure, in the same setting: under `CCCn1c(-c2ccc(F)cc2)nc2c(NCCN(C(C)C)C(C)C)nc(C)nc21` stands 10 µM (inconclusive). On to `COc1cc(C(=O)OCC(=O)Nc2cc(C)on2)ccc1OCc1ccccc1Cl`, for which the values for the EC50 (in series [3]; in series [4]; in the series on H4) were 7.95 µM (active), 4.54 µM (active) and 20.6 µM (active), respectively. The corresponding values for `Cn1c(-c2ccc(-c3ccccc3)cc2)cnc1S` are 7.14 µM (active), 7.75 µM (active) and 15.6 µM (active). On the same counts, the results for `O=C(Nc1ccccc1)O[C@@H]1C[C@H]2CCC(=O)N3CC[C@@H](C1)[C@@H]23` are 0.39 µM (active), 40.9 µM (active) and 53.9 µM (active). As for `O=C(NCC1CCCO1)c1cc(-c2ccccc2)on1` (centres undefined), the EC50 was 11.6 µM (active) in [3]; 35.5 µM (active) in series [4]; 17.2 µM (active) in “cells [7]”; > 120 µM (not active) with H4; > 350 µM (not active) in “cells [8]”. Regarding `CN1C(=O)/C(=C(/C#N)c2nc3ccccc3[nH]2)c2ccccc21`, the AC50 at Cytochrome P450 2C19 was 11.2 µM (inconclusive); at Cytochrome P450 2C9, “inconclusive”.

Regarding `C[C@@H]1CN([C@H](C)CO)C(=O)Cc2cc(NC(=O)Nc3cccc4ccccc34)ccc2O[C@H]1CN(C)Cc1ccccc1`, the AC50 in series [9] was 6.25 µM (active). Still for that read-out and setting: to `C[C@@H]1CN([C@H](C)CO)C(=O)Cc2cc(NC(=O)CCC(F)(F)F)ccc2O[C@@H]1CN(C)Cc1ccc(Oc2ccccc2)cc1` belongs 2.81 µM (active); to `C[C@@H]1CN([C@@H](C)CO)C(=O)c2cccc(NC(=O)CCCCCC(=O)Nc3ccccc3N)c2O[C@H]1CN(C)CC1CC1`, 4.62 µM (active). On the same count and under the same terms, under `C[C@@H]1CCCCO[C@@H](CN(C)Cc2ccc(C(F)(F)F)cc2)[C@@H](C)CN([C@H](C)CO)C(=O)c2cc(NC(=O)Nc3ccccc3)ccc2O1` stands 5.35 µM (active); under `C[C@@H]1CCCCO[C@@H](CN(C)C(=O)Nc2ccc(C(F)(F)F)cc2)[C@@H](C)CN([C@H](C)CO)C(=O)c2cc(NC(=O)Nc3ccc4c(c3)OCO4)ccc2O1`, 4.09 µM (active); under `C[C@@H]1CCCCO[C@@H](CN(C)C(=O)c2ccccc2)[C@@H](C)CN([C@H](C)CO)C(=O)c2cc(NC(=O)Nc3ccc(C(F)(F)F)cc3)ccc2O1`, 6.48 µM (active). Same read-out and setting: under `C[C@@H]1CN([C@H](C)CO)C(=O)Cc2cc(NS(=O)(=O)c3ccc(F)cc3)ccc2O[C@H]1CN(C)Cc1ccc(Cl)c(Cl)c1` stands 2.26 µM (active). As to `Cc1scc(C(=O)N/N=C/c2ccc([N+](=O)[O-])o2)c1C`, the results for the EC50 in series [10] and in [11] were > 150 µM (inactive) and 1.48 µM (active), respectively. Moreover, the AC50 in [6] is 2.19 µM (active).

Turning to `C#CCCCCCCCCCCCC(O)CC(O)COC(C)=O` (centres undefined) [AVOCADYNE ACETATE], the concentration at half-maximal activity (AC50) on Cytochrome P450 3A4 [1] is 39.8 µM (inconclusive). Turning to `S=c1ccss1` [DITHIOLETHIONE], the AC50 at Cytochrome P450 3A4 [1] was 10 µM (inconclusive). On the same count and under the same terms, under `N#Cc1nn(-c2c(Cl)cc(C(F)(F)F)cc2Cl)c(N)c1[S+]([O-])C(F)(F)F` (centres undefined) [FIPRONIL] stands 25.1 µM (inconclusive).
